In publication PMC7070908, “Structure-Guided Identification of Black Cohosh (Actaea racemosa) Triterpenoids with In Vitro Activity against Multiple Myeloma” (Molecules, 2020):
≈ marks a conversion by molar mass, not a printed value. Where “and” joins values, the source holds several entries; their conditions need not be identical. Equal values may be shown once.

How the values were obtained:
[1] = test system: MCF7 breast cancer cells; design: method as in PMID 14758092; conditions: incubation times of 96 h; cited from earlier work
[2] = test system: U266 myeloma cell line; assay: Cytotoxicity, flow cytometry (AnnexinV/propidium iodide negativity), U266; format: cell-based, human
Description: (§1) Induction of apoptosis was measured in myeloma cell lines NCI-H929, OPM-2, and U266 as well as in peripheral blood mononuclear cells (PBMCs) of healthy donors by flow cytometry using established protocols thereby staining the cells with AnnexinV-fluorescein isothiocyanate and propidium iodide. Bortezomib (Eubio, Vienna, Austria) was used as positive control. Cell lines were purchased from DSMZ (Braunschweig, Germany) and routinely fingerprinted and tested for mycoplasma negativity. All cells (cell lines and PBMC) were grown in RPMI-1640 medium (Life Technologies, Paisley, UK) supplemented with 10% fetal calf serum (FCS; PAA, Linz, Austria), L-glutamine 100 µg/mL, and penicillin-streptomycin 100 U/mL. PBMCs from healthy donors were used after obtaining written informed consent at the University Hospital Salzburg (ethics committee approval 415-E/1287/6-2011). Cells were subjected to Ficoll separation (Ficoll PaqueTM) and incubated in RPMI-1640 Media with supplements as above. In brief, 0.5 × 10^6 myeloma cells/mL or similar numbers of PMBCs were incubated for 24 h and 48 h with or without the tested compounds dissolved in dimethyl sulfoxide at different concentrations. At least three analyses in triplicates were performed for each cell line and a solvent control was always included. As a positive control, the proteasome inhibitor bortezomib (BTZ) was used at concentrations of 10 and 5 nM. The extent of non-apoptotic cells (AnnexinV/propidium iodide negativity) was calculated as percentage of viable cells in respect to the untreated control. Data are shown as mean percentage of viable cells and standard error of the mean (SEM) (error bars).

[3] = test system: OPM-2 myeloma cell line; assay: Cytotoxicity, flow cytometry (AnnexinV/propidium iodide negativity), OPM-2; format: cell-based, human
Description: as §1

[4] = test system: peripheral blood mononuclear cells (PBMCs) of healthy donors; assay: Cytotoxicity, flow cytometry (AnnexinV/propidium iodide negativity), PBMC of healthy donors; format: cell-based, human
Description: as §1

[5] = test system: NCI-H929 myeloma cell line; assay: Cytotoxicity, flow cytometry (AnnexinV/propidium iodide negativity), NCI-H929; format: cell-based, human
Description: as §1

[6] = test system: GABA(A)-receptors; design: method as in PMID 21082802; conditions: cited from earlier work
[7] = test system: doxorubicin-resistant-MCF7 (R-MCF7) cells; design: method as in PMID 20564500; conditions: cited from earlier work; for IC50 R-MCF7: doxorubicin-resistant MCF7, 48 h of incubation
[8] = test system: MCF7 cells; design: method as in PMID 20564500; conditions: cited from earlier work; for IC50 MCF7: 48 h of incubation
[9] = 25 µM, 24 h, % of untreated control, mean ± SEM (Table 1)
[10] = 25 µM, 48 h, % of untreated control, mean ± SEM (Table 2)
[11] = 50 µM, 24 h, % of untreated control, mean ± SEM (Table 1)
[12] = 50 µM, 48 h, % of untreated control, mean ± SEM (Table 2)
[13] = 12.5 µM, 24 h, second round (Table 3)
[14] = 25 µM, 24 h, second round (Table 3)
[15] = 37.5 µM, 24 h, second round (Table 3)

| Compound | IC50 growth inhibition of MCF7 breast cancer cells [1] [µg/mL] | MM Cells % Alive U266 [2, 9] [%] | MM Cells % Alive U266 [2, 10] [%] | MM Cells % Alive U266 [2, 11] | MM Cells % Alive OPM-2 [3, 9] [%] | MM Cells % Alive OPM-2 [3, 10] [%] | MM Cells % Alive OPM-2 [3, 11] | PBMC % Alive [4, 9] [%] | PBMC % Alive [4, 10] [%] | PBMC % Alive [4, 11] [%] | PBMC % Alive [4, 12] [%] | MM Cells % Alive NCI-H929 [5, 9] [%] | MM Cells % Alive NCI-H929 [5, 10] [%] | MM Cells % Alive NCI-H929 [5, 11] | IC50 R-MCF7 [7] [µg/mL] | IC50 MCF7 [8] [µg/mL] | MM Cells % Alive U266 [2, 13] [%] | MM Cells % Alive U266 [2, 14] [%] | MM Cells % Alive U266 [2, 15] [%] | MM Cells % Alive OPM-2 [3, 13] [%] | also measured |
| --- | --- | --- | --- | --- | --- | --- | --- | --- | --- | --- | --- | --- | --- | --- | --- | --- | --- | --- | --- | --- | --- |
| CC(=O)O[C@@H]1C[C@@]23C[C@@]24CC[C@H](O[C@@H]2OC[C@@H](O)[C@H](O)[C@H]2O)C(C)(C)[C@@H]4CC[C@H]3[C@]2(C)C[C@@H]3O[C@@]4(C[C@@H](C)[C@@H]3[C@@]12C)OC[C@@]1(C)O[C@@H]41 [23-epi-26-deoxyactein] | 21 |  |  |  |  |  |  |  |  |  |  |  |  |  |  |  |  |  |  |  |  |
| CC(=O)O[C@@H]1C[C@@]23C[C@@]24CC[C@H](O[C@@H]2OC[C@@H](O)[C@H](O)[C@H]2O)C(C)(C)[C@@H]4CC[C@H]3[C@]2(C)C[C@@H]3O[C@]4(C[C@@H](C)[C@@H]3[C@@]12C)O[C@H](O)[C@@]1(C)O[C@@H]41 [Compound 1, actein] | 14 | 90.2 ± 4.1 | 81.0 ± 5.9 | 75.1 ± 6.4% | 93.2 ± 3.7 | 93.1 ± 2.4 | 81.1 ± 4.7% | 96.4 ± 0.1 | 94.6 ± 0.2 | 85.6 ± 1.2 | 74.9 ± 1.2 | 80.5 ± 5.9 | 70.2 ± 4.3 | 48.2 ± 10.9% |  |  |  |  |  |  | MM Cells % Alive U266 [2, 12]: 35.5 ± 6.7%; MM Cells % Alive OPM-2 [3, 12]: 67.3 ± 6.7%; MM Cells % Alive NCI-H929 [5, 12]: 13.2 ± 2.4% |
| CC(=O)OC(CC(C)C1C(=O)C(O)C2(C)C3CCC4C(C)(C)C(OC5OCC(O)C(O)C5O)CCC45CC35CCC12C)C1OC1(C)C [Compound 2, 23-O-acetylshengmanol-3-O-β-D-xylopyranoside] |  | 79.4 ± 20.2 | 90.2 ± 1.7 | 56.3 ± 21.4% | 86.2 ± 8.6 | 84.6 ± 1.0 | 71.0 ± 11.2% | 94.7 ± 1.8 | 92.7 ± 1.7 | 84.0 ± 3.0 | 76.1 ± 2.1 | 87.7 ± 4.9 | 63.9 ± 10.6 | 27.9 ± 12.2% | 60 (≈ 90.5 µM) | 39 (≈ 58.8 µM) |  |  |  |  | MM Cells % Alive U266 [2, 12]: 62.1 ± 0.4%; MM Cells % Alive OPM-2 [3, 12]: 51.7 ± 8.9%; effect on GABA(A)-receptors, factor by which it exceeds actein (1) and compound 3 [6]: > 5; MM Cells % Alive NCI-H929 [5, 12]: 17.4 ± 7.3% |
| CC(=O)OC(C)(C)C1OC23OC1CC(C)C2C1(C)CCC24CC25CCC(OC2OCC(O)C(O)C2O)C(C)(C)C5CCC4C1(C)C3O [Compound 3, 25-O-acetylcimigenol-3-O-α-L-arabinopyranoside] |  | 89.3 ± 3.2 | 66.8 ± 9.5 | 13% and 12.9 ± 3.5% | 63.8 ± 12 | 43.4 ± 9.3 | 20% and 19.7 ± 5.7% | 86.5 ± 2.7 | 76.2 ± 1.8 | 6.1 ± 1.5 | 4.6 ± 0.1 | 52.9 ± 7.1 | 18.9 ± 3.3 | 10% and 10.3 ± 2.8% | 5.3 (≈ 8 µM) | 4.0 (≈ 6.03 µM) | 95.0 ± 2.4 | 77.8 ± 4.6 | 48.0 ± 7.4 | 99.5 ± 2.0 | IC50 ([2]; Homo sapiens, U-266, 24 h, incubation for 24 h): 24.7 µg/mL (≈ 37.3 µM); MM Cells % Alive OPM-2 [3, 14]: 88.8 ± 1.8%; MM Cells % Alive OPM-2 [3, 15]: 70.8 ± 11.5%; IC50 ([3]; Homo sapiens, OPM-2, 24 h, incubation for 24 h): > 37.5 µg/mL; PBMC % Alive [4, 13]: 101.7 ± 0.3%; PBMC % Alive [4, 14]: 98.3 ± 2.0%; PBMC % Alive [4, 15]: 58.7 ± 12.7%; IC50 ([4]; Homo sapiens, PBMC, 24 h, incubation for 24 h): 25.9 µg/mL (≈ 39.1 µM); MM Cells % Alive NCI-H929 [5, 13]: 93.3 ± 1.8%; MM Cells % Alive NCI-H929 [5, 14]: 59.5 ± 7.8%; MM Cells % Alive NCI-H929 [5, 15]: 11.8 ± 4.3%; IC50 ([5]; Homo sapiens, NCI-H929, 24 h, incubation for 24 h): 18.1 µg/mL (≈ 27.3 µM) |
| CC(=O)OC(C)(C)C1OC23OC1CC(C)C2C1(C)CCC24CC25CCC(OC2OCC(O)C(O)C2O)C(C)(C)C5CCC4C1(C)C3O [Compound 4, 25-O-acetylcimigenol-3-O-β-D-xylopyranoside] |  |  |  |  |  |  |  |  |  |  |  |  |  |  | 4.8 (≈ 7.24 µM) | 4.3 (≈ 6.49 µM) | 91.8 ± 4.2 | 87.8 ± 2.0 | 88.0 ± 1.2 | 94.8 ± 5.3 | IC50 U266 ([2]; incubation for 24 h): >37.5 µg/mL; MM Cells % Alive OPM-2 [3, 14]: 90.3 ± 3.7%; MM Cells % Alive OPM-2 [3, 15]: 56.0 ± 13.0%; IC50 OPM-2 ([3]; incubation for 24 h): 26.3 µg/mL (≈ 39.7 µM); PBMC % Alive [4, 13]: 96.7 ± 2.9%; PBMC % Alive [4, 14]: 72.7 ± 5.4%; PBMC % Alive [4, 15]: 28.7 ± 5.9%; IC50 PBMC ([4]; incubation for 24 h): 20.7 µg/mL (≈ 31.2 µM); MM Cells % Alive NCI-H929 [5, 13]: 84.3 ± 8.6%; MM Cells % Alive NCI-H929 [5, 14]: 59.5 ± 8.7%; MM Cells % Alive NCI-H929 [5, 15]: 27.8 ± 6.6%; IC50 NCI-H929 ([5]; incubation for 24 h): 20.3 µg/mL (≈ 30.6 µM) |
| CC1CC2OC3(OC2C(C)(C)O)C1C1(C)CCC24CC25CCC(OC2OCC(O)C(O)C2O)C(C)(C)C5CCC4C1(C)C3O [Compound 6, cimigenol-3-O-β-D-xylopyranoside] |  |  |  |  |  |  |  |  |  |  |  |  |  |  |  |  | 94.8 ± 3.0 | 94.5 ± 3.5 | 93.5 ± 3.2 | 101.7 ± 0.9 | activity on U266 (in words) ([2]; 24 h, up to 37.5 µM): no activity; MM Cells % Alive OPM-2 [3, 14]: 99.5 ± 1.8%; MM Cells % Alive OPM-2 [3, 15]: 100.5 ± 2.4%; activity on OPM-2 (in words) ([3]; 24 h, up to 37.5 µM): no activity; activity against R-MCF7 (in words) [7]: no activity; activity against MCF7 (in words) [8]: no activity; MM Cells % Alive NCI-H929 [5, 13]: 98.5 ± 0.8%; MM Cells % Alive NCI-H929 [5, 14]: 91.8 ± 3.4%; MM Cells % Alive NCI-H929 [5, 15]: 88.5 ± 0.3%; activity on NCI-H929 (in words) ([5]; 24 h, up to 37.5 µM): no activity |
| CC(=O)O[C@@H]1C[C@@]23C[C@@]24CC[C@H](O[C@@H]2OC[C@@H](O)[C@H](O)[C@H]2O)C(C)(C)[C@@H]4CC=C3[C@]2(C)C[C@@H]3O[C@@]4(O)[C@H](OC(C)(C)[C@H]4O)[C@@H](C)[C@@H]3[C@@]12C [cimiracemoside A] | 41 |  |  |  |  |  |  |  |  |  |  |  |  |  |  |  |  |  |  |  |  |
